Tests used:
[1] = system: spindle assembly checkpoint; assay: SAC-Formation - Paclitaxel-Induced Assay; type: cell-based; settings: Homo sapiens; HeLa cells, paclitaxel 0.05 μM, 24 h, phosphorylated histone H3 on serine 10
Outline: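 HeLa cells were plated overnight, then given paclitaxel (0.05 μM final) plus compound (0.005-20 μM, 0.5% DMSO) for 24 h at 37° C. Fixed cells were stained for phospho-histone H3 Ser10 and with Hoechst, then imaged to give mitotic index. A fall in mitotic cells marks SAC breakthrough, and values were fit with a four-parameter Hill equation.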

[2] = target: human kinase Mps-1 (Homo sapiens (Human), UniProt P33981); assay: Mps-1 kinase assay (TR-FRET); type: biochemical; settings: 10 μM ATP; read-out: Mps1 avg (IC50 [mol/l])
human kinase Mps-1, sequence (P33981 whole entry): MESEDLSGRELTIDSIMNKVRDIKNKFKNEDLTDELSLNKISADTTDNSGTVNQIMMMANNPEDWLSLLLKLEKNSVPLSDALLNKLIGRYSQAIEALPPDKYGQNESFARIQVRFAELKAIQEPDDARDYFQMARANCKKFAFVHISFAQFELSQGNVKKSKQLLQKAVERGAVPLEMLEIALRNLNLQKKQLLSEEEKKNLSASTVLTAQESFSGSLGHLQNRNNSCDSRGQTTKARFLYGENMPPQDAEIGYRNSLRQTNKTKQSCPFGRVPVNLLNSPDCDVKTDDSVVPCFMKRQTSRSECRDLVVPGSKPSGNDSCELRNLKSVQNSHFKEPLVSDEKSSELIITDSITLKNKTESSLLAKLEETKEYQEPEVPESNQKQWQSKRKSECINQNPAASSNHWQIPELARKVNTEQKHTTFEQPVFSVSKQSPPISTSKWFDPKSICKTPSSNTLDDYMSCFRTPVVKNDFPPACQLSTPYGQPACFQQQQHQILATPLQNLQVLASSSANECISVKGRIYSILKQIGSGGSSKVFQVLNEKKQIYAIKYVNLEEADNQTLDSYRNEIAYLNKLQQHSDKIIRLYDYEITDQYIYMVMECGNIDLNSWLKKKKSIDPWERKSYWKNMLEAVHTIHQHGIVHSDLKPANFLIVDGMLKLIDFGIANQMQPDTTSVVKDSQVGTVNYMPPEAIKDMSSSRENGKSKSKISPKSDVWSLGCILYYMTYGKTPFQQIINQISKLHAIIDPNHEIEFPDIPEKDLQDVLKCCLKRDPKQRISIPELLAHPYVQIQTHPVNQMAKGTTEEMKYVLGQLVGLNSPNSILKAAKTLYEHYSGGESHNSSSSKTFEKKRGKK
Outline: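 GST-tagged full-length human Mps-1 (~0.5 nM) preincubated 15 min with compound, then reacted 60 min at 22 °C with 10 μM ATP and 1 μM biotinylated peptide in Hepes pH 7.7 buffer. Phosphoproduct detected by TR-FRET (Eu anti-phospho-Ser/Thr, SA-XLent); 665/620 ratio normalised to no-inhibitor and no-enzyme controls.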

| IC50 [1] [nM] | IC50 [2] [µM] | SMILES |
| --- | --- | --- |
| 880 | > 20 | Cc1nsc(Nc2cnc3ccccc3n2)c1C(=O)Nc1ccc(OC(C)C)nc1 [Example 122, N-(6-Isopropoxypyridin-3-yl)-3-methyl-5-(quinoxalin-2-ylamino)-1,2-thiazole-4-carboxamide] |
| 28 | > 20 | Cc1nsc(Nc2cnc3ccccc3n2)c1C(=O)Nc1ccc(F)c(F)c1 [Example 50, N-(3,4-Difluorophenyl)-3-methyl-5-(quinoxalin-2-ylamino)-1,2-thiazole-4-carboxamide] |
| 1200 | > 20 | COc1ncc(NC(=O)c2c(C)nsc2Nc2ccc(C#N)cn2)cc1C [Example 120, 5-[(5-Cyanopyridin-2-yl)amino]-N-(6-methoxy-5-methylpyridin-3-yl)-3-methyl-1,2-thiazole-4-carboxamide] |
| 320 | > 20 | Cc1nsc(Nc2cncc(C(=O)N3CCCC3)n2)c1C(=O)Nc1ccc(F)c(F)c1 [Example 106, N-(3,4-Difluorophenyl)-3-methyl-5-{[6-(pyrrolidin-1-ylcarbonyl)pyrazin-2-yl]amino}-1,2-thiazole-4-carboxamide] |

From US9682995B2, “Amino-substituted isothiazoles” (BAYER PHARMA AKTIENGESELLSCHAFT, priority 2013, dated 2017)
